Assay results from patent US20160316732A1, “CONTROL AND CHARACTERIZATION OF PSYCHOTIC STATES” (priority 2010, published 2016).

Key:
[1] = test system: layer V pyramidal neurons; experiment: Responses of layer V pyramidal neurons to hyperpolarizing/depolarizing current pulses (activity-dependent depolarization); format: cell-based, Thy1::ChR2 transgenic mice; details: for cells in which the activity-dependent depolarization and related phenomena were elicited: 5 μM (−) Quinpirole or 10 μM quinpirole, pooled; for effect on PCP-elicited activity-dependent depolarization and afterdepolarization: n=2 cells
Protocol: Electrophysiological recordings monitored the cellular responses of the layer V pyramidal neurons to in vitro light stimulation when under the pharmacological conditions or treatments.
Brain slices isolated from Thy1::ChR2 transgenic mice underwent direct current stimulation and a layer V pyramidal neuron was monitored by electrophysiological recordings for cellular responses to depolarizing current pulses in the absence or presence of 5 μM PCP.

mice = experiment: Social exploration / social behavior in mice; format: in vivo; details: PCP 5 mg/kg alone; FIG. 4C bottom
[2] = test system: layer V pyramidal neurons; experiment: Responses of layer V pyramidal neurons to light flashes (ChR2 stimulation) in prefrontal slices; format: cell-based, Thy1::ChR2 transgenic mice
[3] = test system: layer V pyramidal neurons; experiment: as above; format: cell-based, Thy1::ChR2 transgenic mice; details: for spiking in response to ChR2 stimulation: p<0.001 vs control; for spikes at short interspike intervals: quinpirole, or haloperidol or sulpiride, FIG. 2E, n=4 cells per group
Protocol: We used prefrontal slices from Thy1::ChR2 mice to study network activity evoked by light. Brain slices isolated from Thy1::ChR2 transgenic mice underwent in vitro light stimulation and a layer V pyramidal neuron was monitored by electrophysiological recordings for cellular responses to trains of light flashes (470 nm, 1 msec) in the absence of a D2 agonist (control) or presence a D2 agonist (20 μM quinpirole). The brain slice was subsequently washed to remove the quinpirole and treated with either 0.2-2 μM haloperidol or 5 μM sulpiride, both of which are known D2 antagonists. The spike rate of the layer V pyramidal neurons and the amount of information transmitted by the spike rate was quantified as well as the number of spikes as a function of interspike interval.

[4] = test system: layer V pyramidal neurons; experiment: Whole-cell voltage-clamp of ion channel currents mediating the activity-dependent depolarization; format: cell-based, mice
Description: We next sought to identify possible ion channel currents mediating the activity-dependent depolarization, in whole-cell voltage-clamp.

[5] = cells with prominent sag and rebound afterdepolarization
[6] = haloperidol (0.2-2 μM) or sulpiride (5 μM), pooled group
[7] = haloperidol (0.2-2 μM) or sulpiride (5 μM), pooled group, p<0.01 vs control

Structure (SMILES): CCCN1CCC[C@@H]2Cc3n[nH]cc3C[C@H]21 [(−) Quinpirole]
- cells in which the activity-dependent depolarization and related phenomena were elicited [1, 5]: 8/10

Structure (SMILES): c1ccc(C2(N3CCCCC3)CCCCC2)cc1 [PCP, phencyclidine]
- social exploration (mice): impairs social exploration
- spiking at short interspike intervals during trains of light pulses ([2]; PCP, Thy1::ChR2 cortical slices): suppressed spiking at short interspike intervals
- response to depolarizing current pulses ([1]; PCP 5 μM, FIG. 4A): exhibits an afterdepolarization and persistent firing
- cells with activity-dependent depolarization and afterdepolarization outlasting direct stimulation ([1]; PCP 5 μM, all layer V pyramidal neurons recorded): 6/12
- cells with activity-dependent depolarization ([1]; PCP 5 μM, neurons with prominent sag and rebound afterdepolarization): 6/9
- cells with activity-dependent depolarization ([1]; PCP 5 μM, neurons without prominent sag and rebound afterdepolarization): 0/3
- wide action potentials (possible dendritic Ca2+ spikes) ([1]; PCP, FIG. 4A): in some cases found to elicit wide action potentials

Structure (SMILES): O=C(CCCN1CCC(O)(c2ccc(Cl)cc2)CC1)c1ccc(F)cc1 [haloperidol]
- reversal of quinpirole-elicited prolonged depolarization ([2]; 0.2-10 μM haloperidol, washout of quinpirole and simultaneous application): 9/9
- quinpirole-elicited prolonged depolarization after washing out quinpirole ([3]; haloperidol 1 μM, FIG. 2B): abolished
- spiking in response to ChR2 stimulation [3, 6]: least
- amount of information the spike rate transmitted about the rate of light flashes [3, 7]: lowest
- spikes at short interspike intervals [3]: loss of spikes at short interspike intervals
- effect on activity-dependent depolarization present in control conditions (before quinpirole) ([1]; haloperidol 0.2-2 μM, n=3): convert bistability into a more modest afterdepolarization, or block the activity dependent depolarization altogether
- block of the quinpirole activity-dependent depolarization ([1]; haloperidol 0.2-10 μM): 9/9

Structure (SMILES): CCCN1CCC[C@@H]2Cc3n[nH]cc3C[C@H]21 [quinpirole]
- current at −30 mV after a series of 1 msec steps to 0 mV ([4]; quinpirole 20 μM): elicited a slowly activating depolarizing current
- tail current at −60 mV after a series of 1 msec steps to 0 mV ([4]; quinpirole 20 μM): increased a rapidly inactivating tail current
- layer V pyramidal neurons with prolonged depolarization outlasting direct stimulation after high-frequency spiking ([3]; quinpirole 20 μM, all layer V pyramidal neurons recorded): 16/26
- amount of information the spike rate transmitted about the rate of light flashes ([3]; quinpirole 20 μM, compared with control, p<0.05): intermediate
- change in responses to trains of light flashes ([3]; quinpirole 20 μM, light flashes 470 nm, 1 msec): marked change in the responses
- spike afterhyperpolarization (AHP) ([3]; quinpirole 20 μM, single 1 msec light flash, FIG. 2F): enhanced the spike afterhyperpolarization
- spikes at short interspike intervals [3]: loss of spikes at short interspike intervals
- spike rate in response to ChR2 stimulation ([3]; quinpirole, p<0.01 vs control): lower spike rates
- cells in which the activity-dependent depolarization and related phenomena were elicited [1, 5]: 8/10
- cells exhibiting the activity-dependent depolarization ([1]; 20 μM quinpirole, cells with prominent sag and rebound afterdepolarization): 16/17
- cells with bistability having peaks in power spectra between 20 and 40 Hz ([1]; quinpirole, FIG. 3F): 4/6
- cells exhibiting the activity-dependent depolarization ([1]; quinpirole, cells without prominent sag and rebound afterdepolarization): 0/9
- cells exhibiting the activity-dependent depolarization ([1]; quinpirole, neurons strongly expressing ChR2): 14/18

Structure (SMILES): CCN1CCCC1CNC(=O)c1cc(S(N)(=O)=O)ccc1OC (stereo not shown) [sulpiride]
- effect on quinpirole-elicited currents at −30 mV and −60 mV ([4]; sulpiride 5 μM): blocked
- reversal of quinpirole-elicited prolonged depolarization ([2]; 5 μM sulpiride, simultaneous application with quinpirole): 2/2
- spiking in response to ChR2 stimulation [3, 6]: least
- amount of information the spike rate transmitted about the rate of light flashes [3, 7]: lowest
- action potential width ([3]; quinpirole + sulpiride 5 μM, FIG. 2F): widened action potentials
- spikes at short interspike intervals [3]: loss of spikes at short interspike intervals
- block of the quinpirole activity-dependent depolarization ([1]; sulpiride 5 μM): 2/2
- effect on PCP-elicited activity-dependent depolarization and afterdepolarization ([1]; sulpiride 5 μM, PCP 5 μM): not blocked
- effect on PCP-elicited activity-dependent depolarization and afterdepolarization ([1]; sulpiride 5 μM, PCP 5 μM, listed as sulphide): not reversed
